In one assay the test system is ferritin. The experiment in a line: Western blot of ferritin in cerebellar lysates. It counts as in vivo. The note with it: cerebellar lysates of IRP2−/− mice, Tempo1 diet vs control diet. As for the experimental part: (§1) Diet: The mice were weaned 3-4 weeks after their birth. Immediately after weaning, mice were maintained on either a Tempo1-supplemented or control diet. In the Tempo1-supplemented diet, powdered Tempo1 was uniformly mixed with bacon-flavored mouse chow by a “cold press” technique (Bio-Serv, Frenchtown, N.J., USA) at a concentration of 10 mg/g of food. Bacon-flavored chow without Tempo1 was used as the control diet.
Tissue and lysate preparation: Animals were euthanized and tissues were frozen in liquid nitrogen immediately after harvesting, and stored at −80° C. under argon. Experiments were performed on tissues that were pulverized in liquid N2-cooled mortars in an anaerobic chamber, and then lysed in lysis buffer that was deaerated by cyclic freezethaw and air-removal with argon. Nuclei and debris were removed by centrifugation. Preparations of lysates for assays of IRP1 activity, western blotting, carbonyl assay and protein analysis were performed anaerobically. […]
Cerebellar lysates from wild-type and IRP2−/− mice that were maintained on a control diet or on a Tempo1-supplemented diet were analyzed for ferritin and actin expression. […] Quantification was performed with the NIH Image program. Error bars represent the standard deviation calculated from the results of three different sets of animals. […]
(In general: A western blot detects proteins with antibodies after separation by electrophoresis.)

Another assay relates to ferric iron accumulation. The experiment in a line: Perls' DAB stain for ferric iron in cerebellar folia and striatum. The note with it: cerebellar folia and striatum of IRP2−/− animals on Tempo1 diet. Format: in vivo, mice. As for the experimental part: as §1
Perl's DAB iron staining: After dewaxing and rehydrating, paraffin-embeded tissue sections were stained in prewarmed staining solution (5% potassium ferrocyanide 15.0 ml, 5% hydrochloric acid 15.0 ml, 15 sec in micro oven) for 5 min. The sections were rinsed with distilled water and Tris-buffered saline pH7.4, then were stained with DAB staining solution (20 mg DAB, 50 μl 30% H2O2, 20 ml Tris-buffered saline pH 7.4) for 30 min at room temperature. After rinsing with distilled water, the sections were mounted with Crystal Mount mounting solution (Sigma) and were observed and taken pictures with Nikon Eclipse E600 fluorescence microscope.
Cerebellar folia and striatum of wild type and IRP2−/− mice that were maintained on a control diet or on a Tempo1-supplemented diet were analyzed for ferric iron accumulation using Perls' DAB stain. […]

The next assay addresses T1, purified holo-IRP1 (Homo sapiens, UniProt P21399).
T1 sequence (P21399 1-889): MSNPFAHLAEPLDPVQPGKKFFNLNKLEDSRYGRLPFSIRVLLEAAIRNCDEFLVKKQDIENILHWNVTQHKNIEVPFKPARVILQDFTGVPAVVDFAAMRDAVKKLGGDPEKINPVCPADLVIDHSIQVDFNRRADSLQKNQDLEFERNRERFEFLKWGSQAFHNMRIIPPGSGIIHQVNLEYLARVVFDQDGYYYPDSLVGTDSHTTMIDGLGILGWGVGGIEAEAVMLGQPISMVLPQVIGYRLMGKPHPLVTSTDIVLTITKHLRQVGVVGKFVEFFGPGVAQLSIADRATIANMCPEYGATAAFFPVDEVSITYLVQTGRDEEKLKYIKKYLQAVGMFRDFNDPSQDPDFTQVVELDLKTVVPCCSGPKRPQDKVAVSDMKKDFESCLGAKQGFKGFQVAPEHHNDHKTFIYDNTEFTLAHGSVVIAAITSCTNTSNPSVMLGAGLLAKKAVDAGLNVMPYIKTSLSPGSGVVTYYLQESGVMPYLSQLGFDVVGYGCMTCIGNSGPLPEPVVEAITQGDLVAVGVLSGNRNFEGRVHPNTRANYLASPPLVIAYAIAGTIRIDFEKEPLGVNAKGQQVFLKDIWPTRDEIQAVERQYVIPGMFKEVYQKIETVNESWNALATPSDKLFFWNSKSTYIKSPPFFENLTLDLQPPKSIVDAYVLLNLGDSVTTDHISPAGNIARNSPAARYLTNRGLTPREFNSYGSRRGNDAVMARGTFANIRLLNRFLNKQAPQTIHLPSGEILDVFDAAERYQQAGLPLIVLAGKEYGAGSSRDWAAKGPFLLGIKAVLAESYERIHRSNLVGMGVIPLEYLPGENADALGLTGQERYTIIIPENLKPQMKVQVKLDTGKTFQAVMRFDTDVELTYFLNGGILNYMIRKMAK
Description: Aconitase activity of purified holo-IRP1, coupled solution assay. The conditions noted are these: purified protein, room air up to 2 h or 3 h at 37° C., vs control samples. It counts as biochemical.

In a further assay the test system is TfR1. The experiment in a line: Western blot of TfR1 in brain-region lysates of IRP2−/− mice. Format: in vivo. The conditions noted are these: lysates from cerebellum, brain-stem and forebrain of IRP2−/− mice, Tempo1 diet vs control diet. As for the experimental part:
as §1
Tissue and lysate preparation: Animals were euthanized and tissues were frozen in liquid nitrogen immediately after harvesting, and stored at −80° C. under argon. Experiments were performed on tissues that were pulverized in liquid N2-cooled mortars in an anaerobic chamber, and then lysed in lysis buffer that was deaerated by cyclic freezethaw and air-removal with argon. […]
Lysates made from various brain regions of IRP2−/− mice that were maintained on a control diet or on a Tempo1-supplemented diet were analyzed for IRE binding activity of IRP1 and for TfR1, IRP1, and actin protein levels by gel-shift assay and Western blot. […] FIG. 3b is a quantification of the results as intensity of the bands relative to the control, represented here as 100%. Quantification was performed with the IQMac (IRP1 activity) or NIH Image (protein levels) program. Error bars represent the standard deviation calculated from the results of two different sets of animals.

For a further assay, the system named is IRP1+/− IRP2−/− mice. Description: Hang-test of IRP1+/− IRP2−/− mice on Tempo1-supplemented diet. Format: in vivo. The note with it: FIG. 7c. As for the experimental part: as §1
Hang-test: In the hang-test, mice were allowed to grip a wire mesh that was then inverted. The length of time that a mouse could hang on to an inverted wire mesh before falling (up to a maximum of 60 seconds) was measured and recorded.
Hang-test results of WT, IRP2−/− and IRP1+/− IRP2−/− mice that indicated IRP1+/− IRP2−/− animals were more symptomatic than IRP2−/− animals. […] Error bars represent standard error of the mean. The curves were drawn by using the polynomial curve fit of the KaleidaGraph program.

Structures are written as SMILES. “Also recorded” adds a separate entry of the source.

Take `CC1(C)CC(O)CC(C)(C)N1[O]` [Tempo1]: the ferritin levels entry with ferritin is “reduced”. In the assay on ferric iron accumulation, the ferric iron staining result was “decreased”. Also, the “loss of aconitase activity” value at purified holo-IRP1 is listed as “comparable losses; also recorded: did not enhance”. Moreover, in the assay on TfR1, the TfR1 protein levels result is “markedly increased”. In the assay with IRP1+/− IRP2−/− mice, the “prevention of disease progression (hang-test)” value is “did not significantly (p=0.559) prevent”.
